Data reported in patent US7179800B2 (priority 2002, dated 2007).
“And” between values parts separate entries of the source, which are not always exact repeats. Equal entries are not always repeated.

How the values were obtained:
[1] = tested on: Male ICR mice; experiment: Suppression of spontaneous activity (SA) in mice; format: in vivo, mouse
Experimental: (§1) Male ICR mice (25–32 g), obtained from Harlan (Dublin, Va.), were housed in groups of five. All animals were kept in a temperature-controlled (20–22° C.) environment with a 12-hour light-dark cycle (lights on at 7 a.m.). Separate mice were used for testing each drug dose in the in vivo behavioral procedures. Brain tissue for binding studies was obtained from male Sprague-Dawley rats (150–200 g) purchased from Harlan Laboratories (Dublin, Va.).
(§2) Measurement of spontaneous activity in mice occurred in standard activity chambers interfaced with a Digiscan Animal Activity Monitor (Omnitech Electronics, Inc., Columbus, Ohio). A standard tail-flick apparatus and a digital thermometer (Fisher Scientific, Pittsburgh, Pa.) were used to measure antinociception and rectal temperature, respectively
(§3) Resorcinols were synthesized in our labs (Organix, Inc., Woburn, Mass.) according to the procedure specified below and were suspended in a vehicle of absolute ethanol, Emulphor-620 (Rhone-Poulenc, Inc., Princeton, N.J.), and saline in a ratio of 1:1:18. Drugs were administered to the mice intravenously (i.v.) in the tail vein at a volume of 0.1 ml/10 g.
(§4) Prior to testing in the behavioral procedures, mice were acclimated to the experimental setting (ambient temperature 22–24° C.) overnight. Pre-injection control values were determined for rectal temperature and tail-flick latency (in sec). […] Tail-flick latency was measured at 20 min post-injection. Maximum latency of 10 sec was used. Antinociception was calculated as percent of maximum possible effect {% MPE=[(test−control latency)/(10-control)]×100}. Control latencies typically ranged from 1.5 to 4.0 sec. At 30 min post-injection, rectal temperature was measured This value was expressed as the difference between control temperature (before injection) and temperatures following drug administration (° C.). Different mice (n=5–6 per dose) were tested for each dose of each compound. Each mouse was tested in each of the 3 procedures.
(§5) Based on data obtained from numerous previous studies with cannabinoids, maximal cannabinoid effects in each procedure were estimated as follows: 90% inhibition of spontaneous activity, 100% MPE in the tail flick procedure, and −6° C. change in rectal temperature. ED50's were defined as the dose at which half maximal effect occurred. For drugs that produced one or more cannabinoid effect, ED50's were calculated separately using least-squares linear regression on the linear part of the dose-effect curve for each measure in the mouse tetrad, plotted against log10 transformation of the dose. For the purposes of potency comparison, potencies were expressed as μmol/kg.

[2] = tested on: Male ICR mice; experiment: Tail-flick antinociception (TF, % MPE) in mice; format: in vivo, mouse; conditions: for T.F. % effect at dose: Table 6, @ 30 (mg/kg)
Experimental: as §1, §2, §3, §4, §5

[3] = tested on: Male ICR mice; experiment: Change in rectal temperature (RT) in mice; format: in vivo, mouse; conditions: for R.T. effect at dose: Table 6, @ 30 (mg/kg)
Experimental: as §1, §2, §3, §4, §5

[4] = molecular target: T1, CB2 receptor (Homo sapiens, UniProt P34972); experiment: CB2 binding procedure: displacement of [3H]CP-55,940 from membranes of transfected CHO cells; conditions: for CB1/CB2 (ratio of Ki): CB1 Ki divided by CB2 Ki; for Ki: means ± SEM, [3H]CP-55,940, transfected CHO cell membranes, read-out: Ki (nM) CB2
T1 construct: expressed in transfected cells; host or cells: CHO cells, G418-selected transfected line
T1 sequence (P34972 whole entry): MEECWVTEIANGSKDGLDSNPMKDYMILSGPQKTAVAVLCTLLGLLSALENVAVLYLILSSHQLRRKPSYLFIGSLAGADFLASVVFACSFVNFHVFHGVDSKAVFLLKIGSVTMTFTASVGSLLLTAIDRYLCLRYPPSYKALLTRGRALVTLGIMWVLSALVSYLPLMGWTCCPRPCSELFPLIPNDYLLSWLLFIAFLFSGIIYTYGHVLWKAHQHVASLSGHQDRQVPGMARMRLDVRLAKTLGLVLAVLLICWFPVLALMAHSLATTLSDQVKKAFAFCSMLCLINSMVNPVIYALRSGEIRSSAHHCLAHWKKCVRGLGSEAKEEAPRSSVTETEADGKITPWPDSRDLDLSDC
Experimental: Membranes for CB2 binding were obtained from CHO cells. The transfected cell line was maintained in Dublecco's Modified Eagle Medium (Gibco BRL, Grand Island, N.Y.) with 10% fetal clone II (HyClone Laboratories, Inc., Logan, Utah) plus 0.3 to 0.5 mg/ml G418 (to maintain selective pressure) under 5% CO2 at 37% C. Cells were harvested with 1 mM EDTA in phosphate-buffered saline and were centrifuged at 1000×g for 5 min at 4% C. The supernatant was saved and the P1 pellet was resuspended in centrifugation buffer. Homogenization and centrifugation were repeated twice and the combined supernatant fractions were centrifuged at 40,000×g for 30 min at 4% C. The P2 pellet was resuspended in centrifugation buffer 2 (Tris HCl, 50 mM; EDTA, 1 mM; and MgCl2, 3 mM, pH 7.4) to a protein concentration of approximately 2 mg/ml. Protein concentrations were determined by the method of Bradford (1976) using Bio-Rad Protein Assay (Bio-Rad, Richmond, Calif.) and BSA standards (fatty acid free, Sigma Chemical Co., St. Louis, Mo.). The membrane preparation was divided into amounts convenient for binding assays and frozen rapidly in dry ice and stored at −80% C.
Binding was initiated by the addition of 50 μg of quickly thawed P2 membranes to test tubes containing [^3H]CP-55,940 (final reaction concentration 0.5 nM), an appropriate concentration of unlabeled CP-55,940 or test drug, and sufficient quantity of assay buffer (50 mM Tris-HCl, 1 mM EDTA, 3 mM MgCl2, 5 mg/ml bovine serum albumin, pH 7.4) to bring the total incubation volume to 0.5 ml. Concentration of [^3H]CP-55,940 in saturation studies ranged from 50 to 10,000 pM. Nonspecific binding was determined by the addition of 1 μM unlabeled CP-55,940. CP-55,940 and all cannabinoid analogs were prepared by suspension in assay buffer from a 1 mg/ml ethanolic stock without evaporation of the ethanol (final concentration of no more than 0.4%). In competition studies, analog concentrations ranged from 0.1 nM to 10 μM. After incubation at 30% C for 1 hr, binding was terminated by the addition of 2 ml of ice-cold wash buffer (50 mM Tris-HCl and 1 mg/ml BSA) and vacuum filtration through pre-treated filters in a 12-well sampling manifold (Millipore, Bedford, Mass.). Reaction vessels were washed once with 2 ml of ice-cold wash buffer. Filters were placed into 7-ml plastic scintillation vials (RPI Corp., Mount Prospect, Ill.) with 4 ml of Budget-Solve (RPI Corp.). After shaking for 30 min, the radioactivity present was determined by liquid scintillation spectrometry. Three reaction vessels were used for each drug concentration in each assay. The results represent the combined data of three independent experiments. All assays were performed in siliconized test tubes, which were prepared by air drying (12 hr) inverted borosilicate tubes after two rinses with a 0.1% solution of AquaSil (Pierce, Rockford, Ill.). The GF/C glass-fiber filters (2.4 cm, Baxter, McGaw Park, Ill.) were pre-treated in a 0.1% solution of pH 7.4 polyethylenimine (Sigma Chemical Co.) for at least 6 hr.
(§6) In addition, multiple linear regression was used to calculate the overall degree of relationship between CB1 binding affinity and potency in the mouse measures for all active cannabinoids. […] Ki values for CB1 and CB2 binding were obtained from Scatchard displacement analysis as determined via EBDA program of the KELL software package (Biosoft, Milltown, N.J.).

[5] = molecular target: CB1 receptor (Rattus norvegicus, UniProt P20272); experiment: CB1 binding procedure: displacement of [3H]CP 55,940 from rat whole-brain P2 membranes; design: whole brain was homogenized and centrifuged; from tissue; host or cells: rat whole brain, P2 membrane fraction; conditions: for Ki: means ± SEM, [3H]CP 55,940, rat brain membranes, read-out: Ki (nM) CB1
CB1 receptor, sequence (P20272 whole entry): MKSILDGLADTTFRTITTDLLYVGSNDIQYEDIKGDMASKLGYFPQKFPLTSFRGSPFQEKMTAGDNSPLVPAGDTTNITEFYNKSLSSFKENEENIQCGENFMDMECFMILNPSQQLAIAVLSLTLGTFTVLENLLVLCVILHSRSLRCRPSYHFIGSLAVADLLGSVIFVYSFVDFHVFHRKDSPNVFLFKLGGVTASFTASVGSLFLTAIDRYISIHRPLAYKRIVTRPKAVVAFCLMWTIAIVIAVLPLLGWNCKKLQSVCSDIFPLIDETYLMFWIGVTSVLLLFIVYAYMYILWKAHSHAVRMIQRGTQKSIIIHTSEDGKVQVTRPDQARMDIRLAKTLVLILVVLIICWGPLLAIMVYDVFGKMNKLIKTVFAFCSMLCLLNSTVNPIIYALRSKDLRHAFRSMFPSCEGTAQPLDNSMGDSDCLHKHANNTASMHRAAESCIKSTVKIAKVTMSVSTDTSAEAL
Experimental: as §1
The methods used for tissue preparation and binding have been described previously (Compton et al., 1993) and are similar to those described by Devane et al. (1988). All assays, as described briefly below, were performed in triplicate, and the results represent the combined data from three to six individual experiments.
Following decapitation and rapid removal of the brain, whole brain was homogenized and centrifuged. The resulting pellet was termed P1. The supernatant was saved and combined with the two subsequent supernatants obtained from washing of the P1 pellet. The combined supernatant fractions were centrifuged, resulting in the P2 pellet. After further incubation and centrifuging, this pellet was resuspended in assay buffer to a protein concentration of approximately 2 mg/ml. The membrane preparation was quickly frozen in a bath solution of dry ice and 2-methylbutane (Sigma Chemical Co., St. Louis, Mo.), then stored at −80° C. for no more than 2 weeks. Prior to performing a binding assay an aliquot of frozen membrane was rapidly thawed and protein values determined by the method of Bradford (1976).
Binding was initiated by the addition of 150 μg of P2 membrane to test tubes containing 1 nM of [^3H] CP 55,940 (79 Ci/mmol) and a sufficient quantity of buffer to bring the total incubation volume to 1 ml. Nonspecific binding was determined by the addition of 1 μM unlabeled CP 55,940. Following incubation at 30° C. for 1 hr, binding was terminated by addition of ice cold buffer and vacuum filtration through pretreated filters in a 12-well sampling manifold (Millipore, Bedford, Mass.). After washing, filters were placed into plastic scintillation vials (Packard, Downer Grove, Ill.) and shaken. The quantity of radioactivity present was determined by liquid scintillation spectrometry.
as §6

[6] = relative to the comparator analog

| SMILES | CB1/CB2 (ratio of Ki) [4] | Ki [4] | Ki [5] | further results |
| --- | --- | --- | --- | --- |
| C=C(C)[C@@H]1CCC(C)=C[C@H]1c1c(C)cc(O)cc1O (single isomer, unassigned) [O-1602] |  |  |  | S.A % effect at dose, stim. ([1]; Table 6, stimulation, @ 30 (mg/kg)): 66% stim.; T.F. % effect at dose [2]: 0 @ 30%; R.T. effect at dose [3]: 0.3 @ 30 °C |
| CCCCCCC(C)(C)c1cc(OC)c(C2(O)CCC(O)CC2)c(OC)c1 (single isomer, unassigned) [O-2116A] | 21 | 190 ± 17 nM | 3930 ± 483 nM |  |
| CCCCCCC(C)(C)c1cc(OC)c(C2(O)CCC(O)CC2)c(OC)c1 (single isomer, unassigned) [O-2117B] |  | 1560 ± 70 nM | > 10000 nM |  |
| CCCCCCC(C)(C)c1cc(OC)c(C2(O)CCCC(C)C2)c(OC)c1 (single isomer, unassigned; isomer 1) [O-1966A, 1-(4-(1,1-Dimethylheptyl-2,6-dimethoxy-phenyl)-3-methyl-cyclohexanol isomer 1] | 220 | 22.5 nM and 23 nM | 5060 ± 984 nM | CB2 selectivity [4]: 225 fold; T.F. % effect at dose [2]: 5.1 @ 30%; R.T. effect at dose [3]: 0.5 @ 30 °C |
| CCCCCCC(C)(C)c1cc(OC)c(C2CCOCC2)c(OC)c1 [O-1964, 4-(4-(1,1-Dimethylheptyl)-2,6-dimethoxy-phenyl)-tetrahydro-pyran] |  | 911 ± 116 nM | > 10000 nM | fold decrease in CB2 affinity [4, 6]: ~2 fold; T.F. % effect at dose [2]: 30% @ 30 |
| CCCCCCC(C)(C)c1cc(OC)c(C2=CCOCC2)c(OC)c1 [O-1965, 4-(4-(1,1-Dimethylheptyl)-2,6-dimethoxy-phenyl)-3,6-dihydro-2H-pyran] |  | > 10000 nM | > 10000 nM |  |
| CCCCCCc1ccc(O)c(C2CCCCC2)c1O [O-2010, 2-Cyclohexyl-4-hexyl resorcinol] |  |  | 9510 ± 332 nM | SA percent effect at the highest dose ([1]; mice, i.v., 30 mg/kg, % inhibition of activity of vehicle group): −18%(30); fold decrease in CB1 affinity [5, 6]: 865 fold; T.F. % effect at dose [2]: 9.0% @ 30; TF percent effect (% MPE) at the highest dose ([2]; mice, i.v., 30 mg/kg): 9%(30); RT effect at the highest dose (change in rectal temperature) ([3]; mice, i.v., 30 mg/kg): −0.4(30) °C |
| CCCCCCC(C)(C)c1cc(OC)c(C2(O)CCCC(C)(C)C2)c(OC)c1 (centres unmarked) [O-2068] | 47 | 161 ± 24 nM | 7510 ± 721 nM |  |
| CCCCCCC(C)(C)c1cc(OC)c(C2(O)CCCCC2)c(OC)c1 [O-2072] | 55 | 105 ± 19 nM | 5820 ± 662 nM |  |
| CCCCCCC(C)(C)c1cc(OCC)c(C2(O)CCCC(C)C2)c(OCC)c1 (centres unmarked) [O-2090] | 10 | 858 ± 43 nM | 8810 ± 422 nM |  |
| CCCCCCC(C)(C)c1cc(OC)c(C2(O)CCCCCC2)c(OC)c1 [O-2091, 1-(4-(1,1-Dimethylheptyl)-2,6-dimephenyl)-cycloheptan-1-ol] | 50 | 64 ± 8 nM | 3200 ± 141 nM | fold increase in CB2 affinity [4, 6]: ~2 fold |
| CCCCCCC(C)(C)c1cc(OC)c(C2(O)CCC3(CC2)OCCO3)c(OC)c1 [O-2092, 8-(4-(1,1-Dimethylheptyl)-2,6-dimphenyl)-1,4-dioxaspiro(4,5)decan-] | 36 | 126 ± 12 nM | 4580 ± 312 nM |  |
| CCCCCCC(C)(C)c1cc(OC)c(C2=CCC(=O)CC2)c(OC)c1 [O-2114, 4-(4-(1,1-O-methyl-heptyl)-2,6-dimethoxy-phenyl)-cyclohex-3-enone] | 5 | 1770 ± 184 nM | 8440 ± 954 nM |  |
| CCCCCCC(C)(C)c1cc(OC)c(C2(O)CCC(=O)CC2)c(OC)c1 [O-2115] | 13 | 346 ± 49 nM | 4570 ± 173 nM |  |
| CCCCCCC(C)(C)c1cc(OC)c(C2(O)CC(C)CC(O)C2)c(OC)c1 (centres unmarked) [O-2121] | 20 | 101 ± 14 nM | 1990 ± 77 nM |  |
| COc1cc(C)cc(OC)c1C1(O)CCCC(C)(C)C1 (centres unmarked) [O-2139, 1-(2,6-Dimethyoxy-methyl-phenyl)-3,3-dimethyl-cyclo-hexanol] |  | > 10000 nM | > 10000 nM |  |
